Values of other authors, collected in patent US7759335B2, “Cannabinoid receptor antagonists/inverse agonists useful for treating metabolic disorders, including obesity and diabetes” (Jenrm Discovery, Inc., priority 2008, dated 2010).

Details: patients with type 2 diabetes not treated with other anti-diabetic medications; after six months of treatment; baseline value 7.9; placebo reduction 0.3%

## Cc1c(C(=O)NN2CCCCC2)nn(-c2ccc(Cl)cc2Cl)c1-c1ccc(Cl)cc1 [rimonabant]
  HbA1c levels lowered: 0.8%
